Source: patent publication US20260272908A1 (VANDERBILT UNIVERSITY, priority 2023, published 2026)

Experiments:
Wnt-target genes = assay: Real-time PCR for Wnt-target genes in Meta4 organoids; type: cell-based, mouse; conditions: pyrvinium 100 nM
Procedure: Mean±SD. One-way ANOVA with Tukey's multiple comparisons.
Total RNAs were extracted from Meta3 or Meta4 organoids using the Trizol (Invitrogen) reagent. cDNAs were synthesized using iScript gDNA clear cDNA synthesis kit (Bio-Rad) and RT-PCR was performed using SsoAdvanced™ Universal SYBR Green supermix (Bio-Rad) and a CFX96 Real-Time PCR Detection System (Bio-Rad). GAPDH, a house keeping gene, was used to normalize gene expression levels. All reactions were performed in triplicate and relative gene expression levels were obtained by the comparative ΔΔCt method using CFX Maestro software (Bio-Rad).

phospho-ERK (p-ERK) = assay: Western blot for phospho-ERK in Meta3 and Meta4 organoids; type: cell-based, mouse
Procedure: FIG. 3C-3D show the Western blot analysis for p-STAT3 and p-ERK in Meta3 and Meta4 organoids (FIG. 3C) and ratios of p-STAT3/total STAT3 and p-ERK/total ERK (FIG. 3D). […] FIG. 3F-3G show phase-contrast images of Meta4 organoids treated with DMSO, Pyr (100 nM), STAT3-IN-1 (1 μM), Stattic (2 μM), and Cryptotanshinone (CPT) (5 μM) for 3 days (FIG. 3F), and quantitation of organoid diameters before and after treatment (FIG. 3G). FIG. 3H-3I show phase-contrast images of Meta4 organoids treated with DMSO, trametinib (Tra), STAT3-IN-1, combination of Tra and STAT3-IN-1, and Pyr, for 3 days (FIG. 3H), and quantitation of organoid diameters before and after treatment (FIG. 3I). FIG. 3J-3K show western blot for p-STAT3 and p-ERK after treatment of Tra, Pyr, and SSTC3 (FIG. 3J) and ratios of p-STAT3/t-STAT3 and p-ERK/t-ERK (FIG. 3K). […] Relative quantification of each gene expression level was normalized to GAPDH gene expression. Shading scale represents the mRNA expression values. FIG. 3M show representative mRNA of Pim-1 and Cyclin-B1 after treatment. Mean±standard deviation. […] Scale bar=500 μM.
Total proteins were extracted from organoids using radioimmunoprecipitation assay buffer (10 mmol/L Tris-HC, pH 7.2, 150 mmol/L NaCl, 5 mmol/L EDTA, 0.1% sodium dodecyl sulfate, 1.0% Triton X-100, 1% deoxycholate) with protease inhibitors. The protein concentration was measured The Bio-Rad Protein Assay (Bio-Rad Laboratories, Hercules, CA). 5 to 10 μg of total protein was loaded onto 12.5% or 10% sodium dodecyl sulfate/polyacrylamide gel electrophoresis (PAGE) and transferred onto polyvinylidene difluoride membranes (Millipore, Billerica, MA). […] After washes with TBS-T, chemiluminescence was detected with an Amersham Imager 680 instrument (GE Healthcare) after 1 mL of the SuperSignal West Femto Maximum Sensitivity Substrate (ThermoFisher) was applied to the membranes.

[1] = tested on: human pre-cancerous organoid (hPCO) lines; assay: Human precancerous organoid (hPCO) growth and organoid death
Procedure: To establish human pre-cancer organoids (hPCO), fresh tissues were obtained from the gastric cancer patients who underwent curative gastrectomy at SNUH (IRB No. H-1806-166-954).
Meta3, Meta4, and hPCO organoids were cultured in Matrigel (ECM, Sigma) with Mouse or Human IntestiCult medium (StemCell Technology) supplemented with 1% of penicillin/streptomycin (Gibco) in 48-well plates and medium was replaced every 3 days. The organoids were split every 5-7 days before they formed budding structures.
Mouse or human organoids were split and cultured in the Mouse or Human IntestiCult media for 1-2 days until they formed three-dimensional (3D) spherical structures, then the media was switched to media containing either DMSO vehicle or a certain concentration of each drug and cultured for 3 days. The EVOS M7000 inverted microscope were used to obtain phase contrast images of organoids. All experiments were repeated at least three times.
The number and diameters of mouse and human organoids treated with drugs were manually counted and measured at day 0 and 3 or 6 after treatment from four entire well images of each condition at 4× magnification. For counting live or dead cells, organoids were stained with Calcein AM for live cells and EthD-1 for dead cells 3 days after treatment and the number of EthD-1 positive organoids were manually counted from images taken from three wells of each condition at 4× magnification. All experiments were performed at least in triplicate. The mean values from each condition were compared by Student's paired or unpaired t-test using Graphpad Prism. *P<0.05, **P<0.01, ***P<0.001, ****P<0.0001.

Meta4 organoids = conditions: pyrvinium, 1 day

Cc1cc(/C=C/c2ccc3cc(N(C)C)ccc3[n+]2C)c(C)n1-c1ccccc1 [pyrvinium]
Wnt-target gene expression (Wnt-target genes; 6 or 24 hours): not downregulated | expression of Axin2, Cdca4, Rnf43, and Znrf3 (Wnt-target genes; 24 hours after treatment): increased | phosphorylation of ERK (phospho-ERK (p-ERK); Meta3): reduced phosphorylation | p-ERK levels (phospho-ERK (p-ERK); Meta4, 3 days): significant decrease | growth of metaplastic cells in hPCO lines ([1]; hPCO with metaplastic features): growth arrest | number of hPCO lines classified pyrvinium-moderate ([1]; of twenty hPCO lines, 6 days): six | number of hPCO lines classified pyrvinium-resistant ([1]; of twenty hPCO lines, 6 days): nine | number of hPCO lines classified pyrvinium-sensitive ([1]; of twenty hPCO lines, 6 days): Five | DSC (dysplastic stem cell) subpopulation (Meta4 organoids): not observed | STAT3-target genes Fos, Fosb, and Jun (Meta4 organoids): downregulated | binding and transcription regulator activities (PANTHER gene ontology) (Meta4 organoids): decreased | cells damaged and mostly differentiated cells among treated cells (Meta4 organoids): over 73.9% | damage-related genes Dusp4, Ddit3 and Areg (Meta4 organoids): upregulated
